Our source for the IC50 values is patent US11312723B2, “Pyranopyrazole and pyrazolopyridine immunomodulators for treatment of autoimmune diseases” (The Rockefeller University, priority 2017, dated 2022).

For one assay, the target named is Human FXIIa (Homo sapiens (Human), UniProt P00748). The assay can be described thus: Factor XIIa (FXIIa) inhibitory activity, chromogenic substrate (Pefachrome XIIa) cleavage. The following applies: 10 min pre-incubation, Pefachrome XIIa 400 μM. Type of assay: biochemical.
A further assay deals with Human alpha-thrombin (Homo sapiens (Human), UniProt P00734). Put plainly: Thrombin counterscreen for selectivity, fluorogenic substrate cleavage. The format is biochemical. As to conditions: 10 min pre-incubation, Boc-Val-Pro-Arg-AMC 20 μM. As to the method: Counterscreens for Selectivity:
Thrombin. In a 96-well white opaque plate, 80 μl of assay buffer was added to each well. Test compounds were added, and serially diluted as above, to generate a concentration range of approximately 1-100 μM. Human alpha-thrombin (Enzyme Research Labs) was diluted in assay buffer to a final concentration of 12.5 nM. 80 μl of this enzyme solution was added to the assay wells. The enzyme/compound mixtures were incubated for 10 minutes at room temperature. Fluorogenic substrate (Boc-Val-Pro-Arg-7-amido-4-methylcoumarin; Sigma) was added to assay wells at a final concentration of 20 μM. The assay plate was spun for 1 minute at 1500 g and then read at 37° C. in a SpectraMax M2 plate reader (λex=380 nm and λem=460 nm). Activity was quantified as the rate of change in fluorescence, which corresponds to the rate of substrate cleavage. IC50 values were determined as the concentration of inhibitor that produced 50% of the rate of change of control wells without any inhibitor. For compounds with activity <1 μM, the assay was repeated with a lower concentration range, typically from 10-1000 nM.
For orientation: Counterscreens check selectivity or assay interference.

Each structure is given as a SMILES string.

Human FXIIa, sequence (P00748 373-615): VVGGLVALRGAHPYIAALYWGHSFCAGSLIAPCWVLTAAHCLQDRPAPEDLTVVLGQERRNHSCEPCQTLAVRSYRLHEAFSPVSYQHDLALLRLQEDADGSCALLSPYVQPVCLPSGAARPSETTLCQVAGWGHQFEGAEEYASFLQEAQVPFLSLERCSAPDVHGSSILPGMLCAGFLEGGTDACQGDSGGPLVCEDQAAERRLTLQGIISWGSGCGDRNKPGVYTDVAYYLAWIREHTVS
Human FXIIa, sequence (P00748 20-372 partner): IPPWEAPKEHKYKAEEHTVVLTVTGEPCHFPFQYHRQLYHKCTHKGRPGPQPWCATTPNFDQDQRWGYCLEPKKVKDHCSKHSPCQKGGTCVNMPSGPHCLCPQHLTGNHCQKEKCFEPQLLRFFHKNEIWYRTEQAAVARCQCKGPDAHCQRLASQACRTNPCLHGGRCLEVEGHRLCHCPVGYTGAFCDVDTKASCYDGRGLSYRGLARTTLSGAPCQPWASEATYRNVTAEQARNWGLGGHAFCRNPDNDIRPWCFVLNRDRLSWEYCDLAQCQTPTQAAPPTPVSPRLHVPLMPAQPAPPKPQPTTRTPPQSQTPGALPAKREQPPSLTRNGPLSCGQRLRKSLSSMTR

On to `Nc1c2c(nn1C(=O)[C@H]1CCNc3ccc(F)cc31)CNCC2` (single isomer, unassigned) [Example 146, (S*)-(3-amino-4,5,6,7-tetrahydro-pyrazolo[3,4-c]pyridin-2-yl)(6-fluoro-1,2,3,4-tetrahydro-quinolin-4-yl)methanone], for which the values for the IC50 on Human FXIIa and at Human alpha-thrombin were 0.07 µM and > 90 µM, respectively.
The corresponding values for `Cc1cccc2c1NCC[C@@H]2C(=O)n1nc2c(c1N)CCNC2` (single isomer, unassigned) [Example 176, (S*)-(3-amino-4,5,6,7-tetrahydro-pyrazolo[3,4-c]pyridin-2-yl)(8-methyl-1,2,3,4-tetrahydro-quinolin-4-yl)methanone] are 0.1 µM and > 90 µM.
The corresponding values for `CS(=O)(=O)N1CCc2c(nn(C(=O)[C@H]3CCCc4[nH]c(Cl)cc43)c2N)C1` (single isomer, unassigned) [Example 131, (S*)-(3-amino-6-(methylsulfonyl)-4,5,6,7-tetrahydro-pyrazolo[3,4-c]pyridin-2-yl)(2-chloro-4,5,6,7-tetrahydro-1H-indol-4-yl)methanone] are 0.03 µM and 1.5 µM.
In the case of `CS(=O)(=O)N1CCc2c(nn(C(=O)C3CCNc4ccccc43)c2N)C1` (stereo not shown) [Example 103, (3-amino-6-(methylsulfonyl)-4,5,6,7-tetrahydro-pyrazolo[3,4-c]pyridin-2-yl)(1,2,3,4-tetrahydro-quinolin-4-yl)methanone], the results for the IC50 at Human FXIIa and against Human alpha-thrombin were 0.35 µM and 30 µM, respectively.
The corresponding values for `Cc1cc2c(C(=O)n3nc4c(c3N)CN(C)CC4)cccc2[nH]1` [Example 85, (3-amino-5-methyl-4,5,6,7-tetrahydro-pyrazolo[4,3-c]pyridin-2-yl)(2-methyl-1H-indol-4-yl)methanone] are 0.03 µM and 60 µM.
The corresponding values for `CC(C)S(=O)(=O)N1CCc2c(N)nn(C(=O)C3CCNc4ccccc43)c2C1` (stereo not shown) [Example 128, (3-amino-6-(isopropyl-sulfonyl)-4,5,6,7-tetrahydro-pyrazolo[3,4-c]pyridin-1-yl)(1,2,3,4-tetrahydro-quinolin-4-yl)methanone] are 28 µM and > 65 µM.
For the molecule `Cc1cc2c(C(=O)n3nc4c(c3N)CCN(S(C)(=O)=O)C4)cccc2[nH]1` [Example 101, (3-amino-6-(methylsulfonyl)-4,5,6,7-tetrahydro-pyrazolo[3,4-c]pyridin-2-yl)(2-methyl-1H-indol-4-yl)methanone], the IC50 was 0.02 µM against Human FXIIa and 10 µM against Human alpha-thrombin.
The corresponding values for `CC(C)C(=O)N1CCc2c(nn(C(=O)C3CCNc4ccccc43)c2N)C1` (stereo not shown) [Example 121, 1-(3-amino-2-(1,2,3,4-tetrahydro-quinoline-4-carbonyl)-4,5-dihydro-2H-pyrazolo[3,4-c]pyridin-6(7H)-yl)-2-methylpropan-1-one] are 0.4 µM and > 80 µM.
The corresponding values for `CCC(=O)N1CCc2c(N)nn(C(=O)C3CCNc4ccccc43)c2C1` (stereo not shown) [Example 120, 1-(3-amino-1-(1,2,3,4-tetrahydro-quinoline-4-carbonyl)-4,5-dihydro-1H-pyrazolo[3,4-c]pyridin-6(7H)-yl)propan-1-one] are 15 µM and > 75 µM.
The corresponding values for `Nc1c2c(nn1C(=O)C1CCNc3ccc(F)cc31)CN(S(=O)(=O)CF)CC2` (stereo not shown) [Example 140, (3-amino-6-(fluoromethyl-sulfonyl)-4,5,6,7-tetrahydro-pyrazolo[3,4-c]pyridin-2-yl)(6-fluoro-1,2,3,4-tetrahydro-quinolin-4-yl)methanone] are 0.13 µM and 60 µM.
Regarding `Cc1cccc2c1NCC[C@@H]2C(=O)n1nc2c(c1N)CCOC2` (single isomer, unassigned) [Example 198, (S*)-(3-amino-4,5-dihydropyrano[3,4-c]pyrazol-2(7H)-yl)(8-methyl-1,2,3,4-tetrahydro-quinolin-4-yl)methanone], the IC50 against Human FXIIa is 0.09 µM; against Human alpha-thrombin it was > 150 µM.
The like results for `Nc1c2c(nn1C(=O)C1CCNc3ccc(F)cc31)CN(S(=O)(=O)C(F)F)CC2` (stereo not shown) [Example 159, (3-amino-6-(difluoromethyl-sulfonyl)-4,5,6,7-tetrahydro-pyrazolo[3,4-c]pyridin-2-yl)(6-fluoro-1,2,3,4-tetrahydro-quinolin-4-yl)methanone] were, in that order, 0.13 µM and 70 µM.
The like results for `CC(=O)N1CCc2c(nn(C(=O)C3CCNc4ccccc43)c2N)C1` (stereo not shown) [Example 107, 1-(3-amino-2-(1,2,3,4-tetrahydro-quinoline-4-carbonyl)-4,5-dihydro-2H-pyrazolo[3,4-c]pyridin-6(7H)-yl)ethanone] were, in that order, 1.8 µM and > 40 µM.
For `Nc1nn(C(=O)C2CCNc3ccccc32)c2c1CCN(C(=O)c1ccccc1)C2` (stereo not shown) [Example 110, (3-amino-1-(1,2,3,4-tetrahydro-quinoline-4-carbonyl)-4,5-dihydro-1H-pyrazolo[3,4-c]pyridin-6(7H)-yl)(phenyl)-methanone], the IC50 was 60 µM on Human FXIIa and > 65 µM at Human alpha-thrombin.
In the case of `CS(=O)(=O)N1CCc2c(nn(C(=O)C3CCNc4c3cccc4C(F)(F)F)c2N)C1` (stereo not shown) [Example 67, (3-amino-6-(methylsulfonyl)-4,5,6,7-tetrahydropyrazolo[3,4-c]pyridin-2-yl)(8-(trifluoromethyl)-1,2,3,4-tetrahydroquinolin-4-yl)methanone], the IC50 at Human FXIIa was 0.15 µM; on Human alpha-thrombin, > 70 µM.
The like results for `CNC(=O)N1CCc2c(N)nn(C(=O)C3CCNc4ccccc43)c2C1` (stereo not shown) [Example 113, 3-amino-N-methyl-1-(1,2,3,4-tetrahydro-quinoline-4-carbonyl)-4,5-dihydro-1H-pyrazolo[3,4-c]pyridine-6(7H)-carboxamide] were, in that order, 95 µM and > 100 µM.
The corresponding values for `CNC(=O)N1CCc2nn(C(=O)C3CCNc4ccccc43)c(N)c2C1` (stereo not shown) [Example 89, 3-amino-N-methyl-2-(1,2,3,4-tetrahydro-quinoline-4-carbonyl)-6,7-dihydro-2H-pyrazolo[4,3-c]pyridine-5(4H)-carboxamide] are 0.8 µM and > 80 µM.
The like results for `CCN1CCc2c(nn(C(=O)C3CCNc4ccc(Cl)cc43)c2N)C1` (stereo not shown) [Example 161, (3-amino-6-ethyl-4,5,6,7-tetrahydro-pyrazolo[3,4-c]pyridin-2-yl)(6-chloro-1,2,3,4-tetrahydro-quinolin-4-yl)methanone] were, in that order, 0.05 µM and 20 µM.
For `CCc1cc2c([nH]1)CCCC2C(=O)n1nc2c(c1N)CNCC2` (stereo not shown) [Example 6, (3-amino-4,5,6,7-tetrahydropyrazolo[4,3-c]pyridin-2-yl)(2-ethyl-4,5,6,7-tetrahydro-1H-indol-4-yl)methanone], the IC50 against Human FXIIa was 0.25 µM; against Human alpha-thrombin, > 50 µM.
In the case of `Cc1cccc2c1NCCC2C(=O)n1nc2c(c1N)COCC2` (stereo not shown) [Example 188, (3-amino-6,7-dihydropyrano[4,3-c]pyrazol-2(4H)-yl)(8-methyl-1,2,3,4-tetrahydro-quinolin-4-yl)methanone], the IC50 was 0.17 µM at Human FXIIa and > 80 µM against Human alpha-thrombin.
The like results for `CCN1CCc2c(c(N)nn2C(=O)C2CCNc3ccccc32)C1` (stereo not shown) [Example 94, (3-amino-5-ethyl-4,5,6,7-tetrahydro-pyrazolo[4,3-c]pyridin-1-yl)(1,2,3,4-tetrahydro-quinolin-4-yl)methanone] were, in that order, > 50 µM and > 80 µM.
Turning to `CN(C)C(=O)N1CCc2c(nn(C(=O)C3CCNc4ccccc43)c2N)C1` (stereo not shown) [Example 123, 3-amino-N,N-dimethyl-2-(1,2,3,4-tetrahydro-quinoline-4-carbonyl)-4,5-dihydro-2H-pyrazolo[3,4-c]pyridine-6(7H)-carboxamide], the values for the IC50 on Human FXIIa and against Human alpha-thrombin were 0.35 µM and > 80 µM, respectively.
The corresponding values for `CNC(=O)N1CCc2c(c(N)nn2C(=O)C2CCNc3ccccc32)C1` (stereo not shown) [Example 90, 3-amino-N-methyl-1-(1,2,3,4-tetrahydro-quinoline-4-carbonyl)-6,7-dihydro-1H-pyrazolo[4,3-c]pyridine-5(4H)-carboxamide] are 1.5 µM and 12 µM.
Consider `Nc1c2c(nn1C(=O)C1CCNc3ccccc31)CNCC2` (stereo not shown) [Example 118, (3-amino-4,5,6,7-tetrahydro-pyrazolo[3,4-c]pyridin-2-yl)(1,2,3,4-tetrahydro-quinolin-4-yl)methanone], for which the IC50 on Human FXIIa is 0.6 µM; on Human alpha-thrombin, > 100 µM.
The like results for `Cc1cc(F)cc2c1NCCC2C(=O)n1nc2c(c1N)CCN(S(C)(=O)=O)C2` (stereo not shown) [Example 51, (3-amino-6-(methylsulfonyl)-4,5,6,7-tetrahydropyrazolo[3,4-c]pyridin-2-yl)(6-fluoro-8-methyl-1,2,3,4-tetrahydroquinolin-4-yl)methanone] were, in that order, 0.02 µM and 15 µM.
The corresponding values for `Nc1c2c(nn1C(=O)C1CCNc3ccc(F)cc31)CN(S(=O)(=O)C1CC1)CC2` (stereo not shown) [Example 144, (3-amino-6-(cyclopropyl-sulfonyl)-4,5,6,7-tetrahydro-pyrazolo[3,4-c]pyridin-2-yl)(6-fluoro-1,2,3,4-tetrahydro-quinolin-4-yl)methanone] are 0.23 µM and > 80 µM.

As a reminder, the IC50 is the point on the concentration scale where inhibition reaches its midpoint. A low value points to greater potency in that assay.
